US12077503B2, “Substituted cyclic amides and their use as herbicides” (FMC CORPORATION, priority 2015, dated 2024)
Read-outs that look alike come from different tables or passages of the source.

What was measured:
Type in all cases: in vivo
[1] = tested on: pigweed (Amaranthus retroflexus); experiment: Test A preemergence; settings: Amaranthus retroflexus, pre-emergence, 240 h; for pest or weed control at 125 g/ha: 125 g ai/ha; for pest or weed control at 500 g/ha: 500 g ai/ha
[2] = tested on: barnyardgrass (Echinochloa crus-galli); experiment: Test B flooded paddy test; settings: Echinochloa crus-galli, 250 g ai/ha, Flood; 0 to 100 scale where 0 is no effect and 100 is complete control; read-out: Barnyardgrass plant response rating
Summary of the method: (§1)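 Compound goes directly into floodwater once pots are flooded 3 cm above soil, targeting plants at two leaves; the water depth is then held for the test duration. Plants sit 13–15 d in a greenhouse and are rated visually, 100 denoting complete control.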

[3] = tested on: ducksalad (Heteranthera limosa); experiment: Test B flooded paddy test; settings: Heteranthera limosa, 250 g ai/ha, Flood; 0 to 100 scale where 0 is no effect and 100 is complete control; read-out: Ducksalad plant response rating
Summary of the method: as §1

rice (Oryra sativa) = experiment: Test B flooded paddy test; settings: Oryza sativa, 250 g ai/ha, Flood; 0 to 100 scale where 0 is no effect and 100 is complete control; read-out: Rice plant response rating
Summary of the method: as §1

[4] = tested on: sedge, umbrella (small-flower umbrella sedge, Cyperus difformis); experiment: Test B flooded paddy test; settings: Cyperus difformis, 250 g ai/ha, Flood; 0 to 100 scale where 0 is no effect and 100 is complete control; read-out: Sedge, Umbrella plant response rating
Summary of the method: as §1

[5] = tested on: blackgrass (Alopecurus myosuroides); experiment: Test A postemergence; settings: Alopecurus myosuroides, post-emergence, 240 h; for pest or weed control at 125 g/ha: 125 g ai/ha; for pest or weed control at 500 g/ha: 500 g ai/ha
Summary of the method: (§2)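 Ratings of 0 (no effect) to 100 (complete control) come from visual comparison with untreated controls roughly 10 d after treatment. Test chemicals, formulated in a non-phytotoxic solvent mixture with surfactant, were applied either as a preemergence directed soil spray on seeded soil or postemergence to one- to two-leaf plants 2 to 10 cm tall.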

[6] = tested on: barnyardgrass (Echinochloa crus-galli); experiment: Test A postemergence; settings: Echinochloa crus-galli, post-emergence, 240 h; for pest or weed control at 125 g/ha: 125 g ai/ha; for pest or weed control at 500 g/ha: 500 g ai/ha
Summary of the method: as §2

[7] = tested on: Galium (catchweed bedstraw, Galium aparine); experiment: Test A postemergence; settings: Galium, post-emergence, 240 h, postemergence; for pest or weed control at 125 g/ha: 125 g ai/ha, visual injury on 0 to 100 scale (0 no effect, 100 complete control); for pest or weed control at 500 g/ha: 500 g ai/ha
Summary of the method: as §2

[8] = tested on: ragweed (common ragweed, Ambrosia elatior); experiment: Test A postemergence; settings: Ambrosia artemisiifolia, post-emergence, 240 h, postemergence; for pest or weed control at 125 g/ha: 125 g ai/ha, visual injury on 0 to 100 scale (0 no effect, 100 complete control); for pest or weed control at 500 g/ha: 500 g ai/ha
Summary of the method: as §2

corn (Zea mays) = experiment: Test A postemergence; settings: Zea mays, post-emergence, 240 h; for plant injury at 125 g/ha: visual injury on 0 to 100 scale (0 no effect, 100 complete control); for plant injury at 125 g/ha / plant injury at 500 g/ha: read-out: Corn plant response rating; for plant injury at 500 g/ha: 0 to 100 scale, 0 is no effect, 100 is complete control
Summary of the method: as §2

[9] = tested on: pigweed (Amaranthus retroflexus); experiment: Test A postemergence; settings: Amaranthus retroflexus, post-emergence, 240 h, postemergence; for pest or weed control at 125 g/ha: 125 g ai/ha, visual injury on 0 to 100 scale (0 no effect, 100 complete control); for pest or weed control at 500 g/ha: 500 g ai/ha
Summary of the method: as §2

Kochia (Kochia scoparia) = experiment: Test A postemergence; settings: Bassia scoparia, post-emergence, 240 h, postemergence; for pest or weed control at 125 g/ha: 125 g ai/ha, visual injury on 0 to 100 scale (0 no effect, 100 complete control); for pest or weed control at 500 g/ha: 500 g ai/ha
Summary of the method: as §2

[10] = tested on: giant foxtail (Setaria faberii); experiment: Test A postemergence; settings: Setaria faberi, post-emergence, 240 h, postemergence; for pest or weed control at 125 g/ha: 125 g ai/ha, visual injury on 0 to 100 scale (0 no effect, 100 complete control); for pest or weed control at 500 g/ha: 500 g ai/ha
Summary of the method: as §2

[11] = tested on: ryegrass, Italian (Italian ryegrass, Lolium multiflorum); experiment: Test A postemergence; settings: Lolium multiflorum, post-emergence, 240 h, postemergence; for pest or weed control at 125 g/ha: 125 g ai/ha, visual injury on 0 to 100 scale (0 no effect, 100 complete control); for pest or weed control at 500 g/ha: 500 g ai/ha
Summary of the method: as §2

[12] = tested on: wheat (Triticum aestivum); experiment: Test A postemergence; settings: Triticum aestivum, post-emergence, 240 h, postemergence; for plant injury at 125 g/ha: 125 g ai/ha, visual injury on 0 to 100 scale (0 no effect, 100 complete control); for plant injury at 500 g/ha: 500 g ai/ha
Summary of the method: as §2

[13] = approx. 10 d, read-out: Galium plant response rating
[14] = approx. 10 d, read-out: Ragweed plant response rating
[15] = approx. 10 d, read-out: Pigweed plant response rating
[16] = approx. 10 d, read-out: Kochia plant response rating
[17] = approx. 10 d, read-out: Foxtail, Giant plant response rating
[18] = approx. 10 d, read-out: Ryegrass, Italian plant response rating
[19] = approx. 10 d, read-out: Wheat plant response rating
[20] = preemergence, 0 to 100 scale where 0 is no effect and 100 is complete control, approx. 10 d, read-out: Pigweed plant response rating
[21] = preemergence, 0 to 100 scale where 0 is no effect and 100 is complete control, read-out: Pigweed plant response rating
[22] = postemergence, visual injury on 0 to 100 scale (0 no effect, 100 complete control), approx. 10 d, read-out: Blackgrass plant response rating
[23] = postemergence, 0 to 100 scale, 0 is no effect, 100 is complete control, read-out: Blackgrass plant response rating
[24] = postemergence, visual injury on 0 to 100 scale (0 no effect, 100 complete control), approx. 10 d, read-out: Barnyardgrass plant response rating
[25] = postemergence, 0 to 100 scale, 0 is no effect, 100 is complete control, read-out: Barnyardgrass plant response rating
[26] = 0 to 100 scale, 0 is no effect, 100 is complete control, read-out: Galium plant response rating
[27] = 0 to 100 scale, 0 is no effect, 100 is complete control, read-out: Ragweed plant response rating
[28] = 125 g ai/ha, postemergence, approx. 10 d
[29] = 0 to 100 scale, 0 is no effect, 100 is complete control, read-out: Pigweed plant response rating
[30] = 0 to 100 scale, 0 is no effect, 100 is complete control, read-out: Kochia plant response rating
[31] = 0 to 100 scale, 0 is no effect, 100 is complete control, read-out: Foxtail, Giant plant response rating
[32] = 0 to 100 scale, 0 is no effect, 100 is complete control, read-out: Ryegrass, Italian plant response rating
[33] = 0 to 100 scale, 0 is no effect, 100 is complete control, read-out: Wheat plant response rating

Structure (SMILES)	pest or weed control at 250 g/ha [2]	pest or weed control at 250 g/ha [3]	pest or weed control at 250 g/ha (rice (Oryra sativa))	pest or weed control at 250 g/ha [4]	pest or weed control at 125 g/ha [7, 13]	pest or weed control at 125 g/ha [8, 14]	pest or weed control at 125 g/ha [9, 15]	pest or weed control at 125 g/ha (Kochia (Kochia scoparia); [16])	pest or weed control at 125 g/ha [10, 17]	pest or weed control at 125 g/ha [11, 18]	plant injury at 125 g/ha [12, 19]	pest or weed control at 125 g/ha [1, 20]	pest or weed control at 500 g/ha [1, 21]	pest or weed control at 125 g/ha [5, 22]	pest or weed control at 500 g/ha [5, 23]	pest or weed control at 125 g/ha [6, 24]	pest or weed control at 500 g/ha [6, 25]	pest or weed control at 500 g/ha [7, 26]	pest or weed control at 500 g/ha [8, 27]	plant injury at 125 g/ha (corn (Zea mays); [28])	further results
Cc1ccc([C@H]2CNC(=O)[C@@H]2C(=O)Nc2cccc(F)c2F)cc1C [Compound 1034]	60%	100%	0%	0%	40%	10%	0%	20%	20%	0%	0%										pest or weed control at 125 g/ha ([1]; Preemergence, visual injury rating after approximately 10 d, read-out: Pigweed plant response rating (0 to 100 scale, 0 is no effect, 100 is complete control)): 0%; pest or weed control at 500 g/ha ([1]; preemergence, visual injury rating about 10 d after treatment, 0 to 100 scale (0 no effect, 100 complete control), read-out: Pigweed plant response rating): 0%; pest or weed control at 125 g/ha ([5]; Postemergence, visual injury after approximately 10 d, 0 to 100 scale where 0 is no effect and 100 is complete control, read-out: Plant response rating, Blackgrass): 20%; pest or weed control at 500 g/ha ([5]; postemergence, visual injury, 0 to 100 scale (0 no effect, 100 complete control), approx. 10 d, read-out: Plant response rating, Blackgrass): 30%; pest or weed control at 125 g/ha ([6]; Postemergence, visual injury after approximately 10 d, 0 to 100 scale where 0 is no effect and 100 is complete control, read-out: Plant response rating, Barnyardgrass): 90%; pest or weed control at 500 g/ha ([6]; postemergence, visual injury, 0 to 100 scale (0 no effect, 100 complete control), approx. 10 d, read-out: Plant response rating, Barnyardgrass): 90%; pest or weed control at 500 g/ha ([7]; visual injury, 0 to 100 scale (0 no effect, 100 complete control), approx. 10 d, read-out: Plant response rating, Galium): 60%; pest or weed control at 500 g/ha ([8]; visual injury, 0 to 100 scale (0 no effect, 100 complete control), approx. 10 d, read-out: Plant response rating, Ragweed): 40%; Corn plant response rating (crop injury, 0 = no effect, 100 = complete kill) at 125 g/ha (corn (Zea mays); 125 g ai/ha, Postemergence, visual injury after approximately 10 d, 0 to 100 scale where 0 is no effect and 100 is complete control): 10%; Corn plant response rating (crop injury, 0 = no effect, 100 = complete kill) at 500 g/ha (corn (Zea mays); 500 g ai/ha, postemergence, visual injury, 0 to 100 scale (0 no effect, 100 complete control), approx. 10 d): 50%; pest or weed control at 500 g/ha ([9]; visual injury, 0 to 100 scale (0 no effect, 100 complete control), approx. 10 d, read-out: Plant response rating, Pigweed): 0%; pest or weed control at 500 g/ha (Kochia (Kochia scoparia); visual injury, 0 to 100 scale (0 no effect, 100 complete control), approx. 10 d, read-out: Plant response rating, Kochia): 30%; pest or weed control at 500 g/ha ([10]; visual injury, 0 to 100 scale (0 no effect, 100 complete control), approx. 10 d, read-out: Plant response rating, Foxtail, Giant): 80%; pest or weed control at 500 g/ha ([11]; visual injury, 0 to 100 scale (0 no effect, 100 complete control), approx. 10 d, read-out: Plant response rating, Ryegrass, Italian): 60%; plant injury at 500 g/ha ([12]; visual injury, 0 to 100 scale (0 no effect, 100 complete control), approx. 10 d, read-out: Plant response rating, Wheat): 50%
O=C1NC[C@H](c2ccc(F)c(OC(F)(F)C(F)F)c2)[C@H]1C(=O)Nc1cccc(F)c1F [Compound 1131]	60%	70%	30%	0%	60%	50%	50%	60%	80%	0%	50%	80%	90%	40%	60%	70%	90%	60%	80%	70%	plant injury at 500 g/ha (corn (Zea mays); 500 g ai/ha, postemergence): 80%; pest or weed control at 500 g/ha [9, 29]: 80%; pest or weed control at 500 g/ha (Kochia (Kochia scoparia); [30]): 70%; pest or weed control at 500 g/ha [10, 31]: 90%; pest or weed control at 500 g/ha [11, 32]: 50%; plant injury at 500 g/ha [12, 33]: 70%
O=C1NC[C@H](c2ccc3c(c2)OCO3)[C@H]1C(=O)Nc1cccc(F)c1C(F)(F)F [Compound 1127]	0%	100%	0%	0%	0%	0%	0%	0%	0%	0%	0%	0%	0%	0%	20%	0%	40%	40%	0%	0%	plant injury at 500 g/ha (corn (Zea mays); 500 g ai/ha, postemergence): 0%; pest or weed control at 500 g/ha [9, 29]: 0%; pest or weed control at 500 g/ha (Kochia (Kochia scoparia); [30]): 0%; pest or weed control at 500 g/ha [10, 31]: 50%; pest or weed control at 500 g/ha [11, 32]: 0%; plant injury at 500 g/ha [12, 33]: 0%
